The source made the active and inactive calls. No cut-off for these calls is given here.

The subject of the assay is Rattus norvegicus. The assay is described as follows: Antidiabetic activity in fasted Sprague-Dawley rat assessed as increase in urinary glucose excretion at 30 mg/kg, po administered 0.5 hrs before glucose challenge measured after 24 hrs by UV spectrophotometric analysis relative to control. It counts as functional, organism-based. Conditions: Urine. The arrangement: dose 30 mg/kg.
For the compound `O=[N+]([O-])c1ccc(Cn2cc(C[C@@H]3O[C@H](CO)[C@@H](O)[C@H](O)[C@H]3O)nn2)cc1`, the result was Active.
The value for `OC[C@H]1O[C@@H](Cc2cn(Cc3ccccc3Cl)nn2)[C@H](O)[C@@H](O)[C@@H]1O` was “Active”.
To `CCOc1ccc(Cc2cc([C@@H]3O[C@H](CO)[C@@H](O)[C@H](O)[C@H]3O)ccc2Cl)cc1` belongs “Active”.
The value for `OC[C@H]1O[C@@H](Cc2cn(Cc3nc4ccccc4s3)nn2)[C@H](O)[C@@H](O)[C@@H]1O` was “Active”.
For `OC[C@H]1O[C@@H](Cc2cn(Cc3ccc(-c4ccc(F)cc4)s3)nn2)[C@H](O)[C@@H](O)[C@@H]1O`, the outcome was Active.
As for `Cc1ccc(Cn2cc(C[C@@H]3O[C@H](CO)[C@@H](O)[C@H](O)[C@H]3O)nn2)cc1`, the outcome was Active.
Consider `OC[C@H]1O[C@@H](Cc2cn(Cc3ccccc3)nn2)[C@H](O)[C@@H](O)[C@@H]1O`, for which the outcome was Active.
To `OC[C@H]1O[C@@H](Cc2cn(Cc3cc4ccc(Cl)cc4s3)nn2)[C@H](O)[C@@H](O)[C@@H]1O` belongs “Active”.

The record behind these values is ChEMBL document CHEMBL1932970, “Facile synthesis of 1,2,3-triazole analogs of SGLT2 inhibitors by 'click chemistry'” (Bioorg Med Chem Lett, 2012).
